Experimental data taken from patent US20050143927A1, “Method for estimating or predicting the anti-tumor activity of a compound and for estimating or predicting the tumor growth in mammals” (Pharmacia Italia S.p.A., priority 2002, published 2005).

Experiment: Two-compartment PK model fitted to plasma concentration of Drug-A (Experiment-A)
Settings: for Vd: male, athymic nude, mouse, iv; for Vd / A (PK macro-constant) / Alpha (PK macro-constant) / B (PK macro-constant) / Beta (PK macro-constant): plasma
[1] = dose 20 mg/kg iv-bolus q4dx3, mean of four mice
[2] = dose 30 mg/kg iv-bolus q4dx3, mean of four mice
[3] = dose 40 mg/kg iv-bolus q4dx3, mean of four mice
[4] = mouse 0, 20 mg/kg iv-bolus q4dx3
[5] = mouse 26, 40 mg/kg iv-bolus q4dx3
[6] = mouse 28, 30 mg/kg iv-bolus q4dx3
[7] = mouse 31, 20 mg/kg iv-bolus q4dx3
[8] = mouse 55, 20 mg/kg iv-bolus q4dx3
[9] = mouse 59, 30 mg/kg iv-bolus q4dx3
[10] = mouse 64, 30 mg/kg iv-bolus q4dx3
[11] = mouse 69, 20 mg/kg iv-bolus q4dx3
[12] = mouse 78, 40 mg/kg iv-bolus q4dx3
[13] = mouse 80, 40 mg/kg iv-bolus q4dx3
[14] = mouse 81, 40 mg/kg iv-bolus q4dx3
[15] = mouse 88, 30 mg/kg iv-bolus q4dx3

CC(=O)O[C@H]1C(=O)[C@@]2(C)[C@H]([C@H](OC(=O)c3ccccc3)[C@]3(O)C[C@H](OC(=O)[C@H](O)[C@@H](NC(=O)c4ccccc4)c4ccccc4)C(C)=C1C3(C)C)[C@]1(OC(C)=O)CO[C@@H]1C[C@@H]2O [Drug-A, paclitaxel]
A (PK macro-constant), mean [1]: 34294.5621
B (PK macro-constant), mean [1]: 3467.5180
K10, mean [1]: 41.0979 day⁻¹
K12, mean [1]: 16.4430 day⁻¹
K21, mean [1]: 12.4026 day⁻¹
α (PK macro-constant), mean [1]: 62.0545
β (PK macro-constant), mean [1]: 7.8890
A (PK macro-constant), mean [2]: 56632.6519
B (PK macro-constant), mean [2]: 759.8587
K10, mean [2]: 20.8063 day⁻¹
K12, mean [2]: 2.2085 day⁻¹
K21, mean [2]: 3.4809 day⁻¹
α (PK macro-constant), mean [2]: 23.2801
β (PK macro-constant), mean [2]: 3.2157
A (PK macro-constant), mean [3]: 62064.8954
B (PK macro-constant), mean [3]: 7999.4363
K10, mean [3]: 20.0530 day⁻¹
K12, mean [3]: 9.5544 day⁻¹
K21, mean [3]: 6.2425 day⁻¹
α (PK macro-constant), mean [3]: 32.9706
β (PK macro-constant), mean [3]: 2.8793
Vd (20 mg/kg, Vd (apparent volume of distribution of the central compartment), mouse 0, 20 mg/kg iv-bolus q4dx3): 9.51 L/kg
Vd (20 mg/kg, Vd (apparent volume of distribution of the central compartment), mouse 31, 20 mg/kg iv-bolus q4dx3): 1.34 L/kg
Vd (20 mg/kg, Vd (apparent volume of distribution of the central compartment), mouse 55, 20 mg/kg iv-bolus q4dx3): 0.719 L/kg
Vd (20 mg/kg, Vd (apparent volume of distribution of the central compartment), mouse 69, 20 mg/kg iv-bolus q4dx3): 0.188 L/kg
Vd (20 mg/kg, Vd, mean, dose 20 mg/kg iv-bolus q4dx3, mean of four mice): 2.94 L/kg
Vd (30 mg/kg, Vd (apparent volume of distribution of the central compartment), mouse 28, 30 mg/kg iv-bolus q4dx3): 0.528 L/kg
Vd (30 mg/kg, Vd (apparent volume of distribution of the central compartment), mouse 59, 30 mg/kg iv-bolus q4dx3): 0.373 L/kg
Vd (30 mg/kg, Vd (apparent volume of distribution of the central compartment), mouse 64, 30 mg/kg iv-bolus q4dx3): 0.745 L/kg
Vd (30 mg/kg, Vd (apparent volume of distribution of the central compartment), mouse 88, 30 mg/kg iv-bolus q4dx3): 0.578 L/kg
Vd (30 mg/kg, Vd, mean, dose 30 mg/kg iv-bolus q4dx3, mean of four mice): 0.556 L/kg
Vd (40 mg/kg, Vd (apparent volume of distribution of the central compartment), mouse 26, 40 mg/kg iv-bolus q4dx3): 5.07 L/kg
Vd (40 mg/kg, Vd (apparent volume of distribution of the central compartment), mouse 78, 40 mg/kg iv-bolus q4dx3): 1.87 L/kg
Vd (40 mg/kg, Vd (apparent volume of distribution of the central compartment), mouse 80, 40 mg/kg iv-bolus q4dx3): 0.234 L/kg
Vd (40 mg/kg, Vd (apparent volume of distribution of the central compartment), mouse 81, 40 mg/kg iv-bolus q4dx3): 0.502 L/kg
Vd (40 mg/kg, Vd, mean, dose 40 mg/kg iv-bolus q4dx3, mean of four mice): 1.92 L/kg
K10 (constant rate of the elimination process) [4]: 25.15 day⁻¹
K12 (interchange constant rate) [4]: 15.64 day⁻¹
K21 (interchange constant rate) [4]: 5.819 day⁻¹
A (PK macro-constant) [4]: 1975
Alpha (PK macro-constant) [4]: 43.22
B (PK macro-constant) [4]: 128.5
Beta (PK macro-constant) [4]: 3.386
K10 (constant rate of the elimination process) [5]: 14.22 day⁻¹
K12 (interchange constant rate) [5]: 1.663 day⁻¹
K21 (interchange constant rate) [5]: 3.76 day⁻¹
A (PK macro-constant) [5]: 7586
Alpha (PK macro-constant) [5]: 16.38
B (PK macro-constant) [5]: 297.8
Beta (PK macro-constant) [5]: 3.265
K10 (constant rate of the elimination process) [6]: 20.98 day⁻¹
K12 (interchange constant rate) [6]: 1.774 day⁻¹
K21 (interchange constant rate) [6]: 6.257 day⁻¹
A (PK macro-constant) [6]: 54798.379413
Alpha (PK macro-constant) [6]: 23.4
B (PK macro-constant) [6]: 2069
Beta (PK macro-constant) [6]: 5.61
K10 (constant rate of the elimination process) [7]: 22.85 day⁻¹
K12 (interchange constant rate) [7]: 3.375 day⁻¹
K21 (interchange constant rate) [7]: 5.126 day⁻¹
A (PK macro-constant) [7]: 14365.650820
Alpha (PK macro-constant) [7]: 27.02
B (PK macro-constant) [7]: 518.5
Beta (PK macro-constant) [7]: 4.336
K10 (constant rate of the elimination process) [8]: 35.24 day⁻¹
K12 (interchange constant rate) [8]: 3.303 day⁻¹
K21 (interchange constant rate) [8]: 3.947 day⁻¹
A (PK macro-constant) [8]: 27526.035314
Alpha (PK macro-constant) [8]: 38.91
B (PK macro-constant) [8]: 293.5
Beta (PK macro-constant) [8]: 3.575
K10 (constant rate of the elimination process) [9]: 18.65 day⁻¹
K12 (interchange constant rate) [9]: 4.915 day⁻¹
K21 (interchange constant rate) [9]: 0.005329 day⁻¹
A (PK macro-constant) [9]: 80469.811028
Alpha (PK macro-constant) [9]: 23.57
B (PK macro-constant) [9]: 3.797
Beta (PK macro-constant) [9]: 0.004217
K10 (constant rate of the elimination process) [10]: 17.25 day⁻¹
K12 (interchange constant rate) [10]: 0.5748 day⁻¹
K21 (interchange constant rate) [10]: 3.444 day⁻¹
A (PK macro-constant) [10]: 39912.523664
Alpha (PK macro-constant) [10]: 17.96
B (PK macro-constant) [10]: 374.8
Beta (PK macro-constant) [10]: 3.308
K10 (constant rate of the elimination process) [11]: 81.15 day⁻¹
K12 (interchange constant rate) [11]: 43.46 day⁻¹
K21 (interchange constant rate) [11]: 34.72 day⁻¹
A (PK macro-constant) [11]: 93311.275568
Alpha (PK macro-constant) [11]: 139.1
B (PK macro-constant) [11]: 12929.572382
Beta (PK macro-constant) [11]: 20.26
K10 (constant rate of the elimination process) [12]: 18.81 day⁻¹
K12 (interchange constant rate) [12]: 1.318 day⁻¹
K21 (interchange constant rate) [12]: 0.03721 day⁻¹
A (PK macro-constant) [12]: 21408.348297
Alpha (PK macro-constant) [12]: 20.13
B (PK macro-constant) [12]: 2.6
Beta (PK macro-constant) [12]: 0.03477
K10 (constant rate of the elimination process) [13]: 30.07 day⁻¹
K12 (interchange constant rate) [13]: 35.07 day⁻¹
K21 (interchange constant rate) [13]: 21.07 day⁻¹
A (PK macro-constant) [13]: 139526.742848
Alpha (PK macro-constant) [13]: 78.1
B (PK macro-constant) [13]: 31692.453321
Beta (PK macro-constant) [13]: 8.112
K10 (constant rate of the elimination process) [14]: 17.11 day⁻¹
K12 (interchange constant rate) [14]: 0.1688 day⁻¹
K21 (interchange constant rate) [14]: 0.1062 day⁻¹
A (PK macro-constant) [14]: 79738.401451
Alpha (PK macro-constant) [14]: 17.28
B (PK macro-constant) [14]: 4.845
Beta (PK macro-constant) [14]: 0.1051
K10 (constant rate of the elimination process) [15]: 26.34 day⁻¹
K12 (interchange constant rate) [15]: 1.57 day⁻¹
K21 (interchange constant rate) [15]: 4.217 day⁻¹
A (PK macro-constant) [15]: 51349.893679
Alpha (PK macro-constant) [15]: 28.19
B (PK macro-constant) [15]: 591.6
Beta (PK macro-constant) [15]: 3.941
